Source: patent US11591331B2, “PARP1 inhibitors and uses thereof” (Xinthera, Inc., priority 2021, dated 2023)

What was measured:
[1] = system: MDA-MB-436 (mutated BRCA1) cell lines; assay: Cell growth inhibition assay (CellTiter-Glo cell viability, 7 days); type: cell-based; details: Homo sapiens, 168 h, MDA-MB-436 cells
DLD-1 BRCA2(−/−) = assay: as above; type: cell-based; details: Homo sapiens, 168 h, DLD-1 BRCA2(-/-) cells

## CNC(=O)c1ncc(N2CCN(Cc3ccc4c5c(c(=O)[nH]c4c3)CCO5)CC2)cc1F [Example 71]
[1]
  EC50: 5.9 nM
DLD-1 BRCA2(−/−)
  EC50: 13 nM

## CCc1cc2ncc(CN3CCN(c4ccc(C(=O)NCCOC)nc4)CC3)cc2[nH]c1=O [Example 42]
[1]
  EC50: 4.1 nM
DLD-1 BRCA2(−/−)
  EC50: 3.3 nM

## CNC(=O)c1ccc(N2CCN(Cc3cnc4cc(N5CCC5)c(=O)[nH]c4c3)CC2)cn1 [Example 149]
[1]
  EC50: 9.4 nM
DLD-1 BRCA2(−/−)
  EC50: 17 nM

## CNC(=O)c1ccc(N2CCN(Cc3ccc4c5c(c(=O)[nH]c4c3)CCO5)CC2)cn1 [Example 18, N-methyl-5-[4-({4-oxo-2H,3H,5H-furo[3,2-c]quinolin-7-yl}methyl)piperazin-1-yl]pyridine-2-carboxamide]
[1]
  EC50: 2.3 nM
DLD-1 BRCA2(−/−)
  EC50: 5.1 nM

## CNC(=O)c1ccc(C2=CCN(Cc3cnc4cc(Cl)c(=O)[nH]c4c3)CC2)c(F)n1 [Example 153]
[1]
  EC50: 0.74 nM
DLD-1 BRCA2(−/−)
  EC50: 0.95 nM

## CNC(=O)c1ccc2c(c1F)OC[C@@H]1CN(Cc3cnc4cc(C)c(=O)[nH]c4c3)CCN21 [Example 94]
[1]
  EC50: 41 nM
DLD-1 BRCA2(−/−)
  EC50: 39 nM

## CNC(=O)c1ccc(N2CCN(Cc3cnc4c(C)c(C(F)F)c(=O)[nH]c4c3)CC2)cn1 [Example 133]
[1]
  EC50: 0.87 nM
DLD-1 BRCA2(−/−)
  EC50: 1 nM

## CCc1cc2ncc(CN3CCN(c4ccc(NC(=O)N5CCOCC5)nc4)CC3)cc2[nH]c1=O [Example 101]
[1]
  EC50: 9.8 nM
DLD-1 BRCA2(−/−)
  EC50: 17 nM

## CCc1cc2ncc(CN3CCN(c4ccc(C(=O)N[C@H]5C[C@](C)(O)C5)nc4)CC3)cc2[nH]c1=O [Example 55]
[1]
  EC50: 1.4 nM
DLD-1 BRCA2(−/−)
  EC50: 11 nM

## CCc1cc2ncc(CN3CCN(c4ccc(C(=O)N[C@H](C)CO)nc4)CC3)cc2[nH]c1=O [Example 59]
[1]
  EC50: 7.8 nM
DLD-1 BRCA2(−/−)
  EC50: 16 nM

## CCc1cc2ncc(CN3CCN(c4ccc(C(=O)N[C@H]5C[C@@H](C#N)C5)nc4)CC3)cc2[nH]c1=O [Example 58]
[1]
  EC50: 0.9 nM
DLD-1 BRCA2(−/−)
  EC50: 3.5 nM

## CCc1nc2ncc(CN3CCN(c4ccc(C(=O)NC)nc4)CC3)cc2[nH]c1=O [Example 91]
[1]
  EC50: 13 nM
DLD-1 BRCA2(−/−)
  EC50: 13 nM

## C#Cc1cc2ncc(CN3CCN(c4ccc(C(=O)NC)nc4)CC3)cc2[nH]c1=O [Example 135]
[1]
  EC50: 24 nM
DLD-1 BRCA2(−/−)
  EC50: 15 nM

## [2H]C([2H])([2H])NC(=O)c1ccc(N2CCN(Cc3cnc4cc(CC)c(=O)[nH]c4c3)C[C@H]2C)c(C#N)n1 [Example 93]
[1]
  EC50: 0.84 nM
DLD-1 BRCA2(−/−)
  EC50: 1.7 nM

## CCc1cc2ncc(CN3CCN(c4ccc(C(=O)NC[C@@H](C)OC)nc4)CC3)cc2[nH]c1=O [Example 60]
[1]
  EC50: 5 nM
DLD-1 BRCA2(−/−)
  EC50: 14 nM

## CCc1cc2ncc(CN3CCN(c4ccc(NC(=O)[C@H]5CCO5)nc4)CC3)cc2[nH]c1=O (racemic) [Example 103]
[1]
  EC50: 5.2 nM
DLD-1 BRCA2(−/−)
  EC50: 6.6 nM

## CNC(=O)c1ccc(N2CCN(Cc3cnc4c(C)c(C)c(=O)[nH]c4c3)CC2)cn1 [Example 95]
[1]
  EC50: 2.9 nM
DLD-1 BRCA2(−/−)
  EC50: 3.9 nM

## CCc1cc2ncc(CN3CCN(c4ccc(C(=O)NC[C@H]5CCOC5)nc4)CC3)cc2[nH]c1=O [Example 41]
[1]
  EC50: 1.9 nM
DLD-1 BRCA2(−/−)
  EC50: 2.4 nM

## CCc1cc2ncc(CN3CCN(c4ccc(C(=O)N[C@H]5CCCOC5)nc4)CC3)cc2[nH]c1=O (single isomer, unassigned) [Example 53]
[1]
  EC50: 0.92 nM
DLD-1 BRCA2(−/−)
  EC50: 2.4 nM

## Cc1cc2ncc(CN3CCN(c4ccc(C(=O)NC5CC5)nc4)[C@@H]4C[C@@H]43)cc2[nH]c1=O (single isomer, unassigned) [Example 109]
[1]
  EC50: 14 nM
DLD-1 BRCA2(−/−)
  EC50: 37 nM

## Cc1cc2ncc([C@@H](C)N3CCN(c4ccc(C(=O)NC5CC5)nc4)CC3)cc2[nH]c1=O (single isomer, unassigned) [Example 127]
[1]
  EC50: 7.3 nM
DLD-1 BRCA2(−/−)
  EC50: 15 nM

## CCc1cc2ncc(CN3CCN(c4ccc(NC(=O)C5CC5)nc4)CC3)cc2[nH]c1=O [Example 75]
[1]
  EC50: 1.5 nM
DLD-1 BRCA2(−/−)
  EC50: 2.6 nM

## [2H]C([2H])([2H])NC(=O)c1ccc(N2CCN(C([2H])([2H])c3cnc4cc(C5CC5)c(=O)[nH]c4c3)CC2)cn1 [Example 116]
[1]
  EC50: 1.2 nM
DLD-1 BRCA2(−/−)
  EC50: 2 nM

## CCc1cc2ncc(CN3CCN(c4ccc(C(=O)N[C@@H]5CCOC5)nc4)CC3)cc2[nH]c1=O [Example 48]
[1]
  EC50: 1.7 nM
DLD-1 BRCA2(−/−)
  EC50: 2.7 nM

## O=C(NC1CC1)c1ccc(N2CCN(Cc3cnc4cc(Cl)c(=O)[nH]c4c3)CC2)cn1 [Example 147]
[1]
  EC50: 1.3 nM
DLD-1 BRCA2(−/−)
  EC50: 2.9 nM

## CCc1nc2cnc(CN3CCN(c4ccc(C(=O)NC)nc4)CC3)cc2[nH]c1=O [Example 87]
[1]
  EC50: 5.3 nM
DLD-1 BRCA2(−/−)
  EC50: 6.5 nM

## CCc1cc2ncc(CN3CCN(c4ccc(-c5cnc[nH]5)c(F)c4)CC3)cc2[nH]c1=O [Example 70]
[1]
  EC50: 2.6 nM
DLD-1 BRCA2(−/−)
  EC50: 5.5 nM

## CCc1cc2ncc(CN3CCN(c4cnc(C(=O)NC5CC5)c(F)c4)CC3)cc2[nH]c1=O [Example 105]
[1]
  EC50: 1.8 nM
DLD-1 BRCA2(−/−)
  EC50: 3.2 nM

## [2H]C([2H])([2H])NC(=O)c1ccc(N2CCN(Cc3cnc4cc(CC)c(=O)[nH]c4c3)[C@H]3C[C@H]32)cn1 (racemic) [Example 90]
[1]
  EC50: 4.3 nM
DLD-1 BRCA2(−/−)
  EC50: 6.4 nM

## CNC(=O)c1ccc(N2CCN(Cc3cnc4cc(C5CC(F)(F)C5)c(=O)[nH]c4c3)CC2)cn1 [Example 140]
[1]
  EC50: 5.8 nM
DLD-1 BRCA2(−/−)
  EC50: 4.3 nM

## [2H]C([2H])([2H])NC(=O)c1ccc(N2CCN(Cc3cnc4cc(C5CC5)c(=O)[nH]c4c3)CC2)cn1 [Example 67]
[1]
  EC50: 1.1 nM
DLD-1 BRCA2(−/−)
  EC50: 1.8 nM

## CCc1cc2nnc(CN3CCN(c4ccc(C(=O)NC)nc4)CC3)cc2[nH]c1=O [Example 86]
[1]
  EC50: 6.1 nM
DLD-1 BRCA2(−/−)
  EC50: 6 nM

## CNC(=O)c1ccc(N2CCN(Cc3cnc4cc(C5CCC5)c(=O)[nH]c4c3)CC2)cn1 [Example 104]
[1]
  EC50: 1.4 nM
DLD-1 BRCA2(−/−)
  EC50: 1.4 nM

## CCc1cc2c(OC)nc(CN3CCN(c4ccc(C(=O)NC)nc4)CC3)cc2[nH]c1=O [Example 144]
[1]
  EC50: 2 nM
DLD-1 BRCA2(−/−)
  EC50: 4.1 nM

## CCc1cc2ncc(CN3CCN(c4ccnnc4C#N)CC3)cc2[nH]c1=O [Example 120]
[1]
  EC50: 1.7 nM
DLD-1 BRCA2(−/−)
  EC50: 2.7 nM

## CCc1cc2ncc(CN3CCN(c4cnc(C(=O)NC)c(F)c4)[C@H](C)C3)cc2[nH]c1=O [Example 39]
[1]
  EC50: 2.7 nM
DLD-1 BRCA2(−/−)
  EC50: 3.3 nM

## CCc1cc2ncc(CN3CCN(c4ccc(C(=O)N[C@H]5CCC[C@@H]5O)nc4)CC3)cc2[nH]c1=O [Example 49]
[1]
  EC50: 2.4 nM
DLD-1 BRCA2(−/−)
  EC50: 5.5 nM

## CCc1cc2ncc(CN3CCN(c4ccc(C(=O)NC[C@@H](C)O)nc4)CC3)cc2[nH]c1=O [Example 57]
[1]
  EC50: 3.6 nM
DLD-1 BRCA2(−/−)
  EC50: 11 nM

## Cc1cnc(N2CCN(Cc3cnc4cc(C5CC5)c(=O)[nH]c4c3)CC2)n1C [Example 136]
[1]
  EC50: 0.93 nM
DLD-1 BRCA2(−/−)
  EC50: 2 nM

## CNC(=O)c1ccc(N2CCN(Cc3cnc4c(c3)[nH]c(=O)c3ccoc34)[C@@H]3C[C@@H]32)cn1 (single isomer, unassigned) [Example 85]
[1]
  EC50: 13 nM
DLD-1 BRCA2(−/−)
  EC50: 14 nM

## [2H]C([2H])([2H])NC(=O)c1ccc(N2CCN(Cc3cnc4cc(CC)c(=O)[nH]c4c3)[C@@H]3C[C@@H]32)cn1 (single isomer, unassigned) [Example 96]
[1]
  EC50: 1.7 nM
DLD-1 BRCA2(−/−)
  EC50: 2.9 nM

## CNC(=O)c1ncc(N2CCN(Cc3cnc4cc(C5CC5)c(=O)[nH]c4c3)CC2)cc1F [Example 100]
[1]
  EC50: 2.6 nM
DLD-1 BRCA2(−/−)
  EC50: 3.9 nM

## CCc1cc2ncc(CN3CCN(c4ccc(C(=O)N[C@H]5CCOC5)nc4)CC3)cc2[nH]c1=O [Example 47]
[1]
  EC50: 3.3 nM
DLD-1 BRCA2(−/−)
  EC50: 7.7 nM
